The subject of one assay is HT-29. Nature of the assay: Cancer cell growth inhibition (CellTiter-Glo), HT-29. The assay is classed as cell-based, Human. The conditions noted are these: Homo sapiens; Colorectal Cancer, HT-29, 72 h treatment. How it is done: (§1) Cell culture-based assays were used to evaluate the ability of compounds of the invention to inhibit cancer cell growth.
(§2) Cells were obtained from the American Type Culture Collection (ATCC). Cells were cultured at 37° C. with 5% CO2 in the appropriate growth medium (see table below), and harvested respectively during the logarithmic growth period and counted with hemocytometer. The cell viability was examined by trypan blue exclusion. Cell concentrations were adjusted to 5.56×10^4 cells/ml with respective medium.
(§3) Stock solutions of test compounds and positive drugs Doxorubicin (Zhejiang, Haizheng, China), Cisplatin (Nanjing Zhiyao, China) and Mitomycin (Zhejiang, Haizheng, China) were prepared in dimethyl sulphoxide (DMSO) or PBS at 20 mM.
(§4) In order to determine the IC50 for each compound, experiments were carried out in 96-well plates and the cell lines seeded at a density of 5,000 cells/well. […] All treatments were performed in triplicate. 10 μl of drug solution was added to each well and incubated for 72 hours. At the end of the incubation, 100 μl of the CellTiter-Glo Reagent were added to each well and the contents were mixed for 2 munites on an orbital shaker to induce cell lysis. The plate was incubated at room temperature for 10 minutes to stabilize luminiscent signal, and luminiscent was recorded. […] In order to calculate IC50 values, dose-responsive curves were fitted using nonlinear regression model with a sigmoidal dose response.
On the technique in general: In ATP-based viability assays light output follows the ATP content of the culture.

The subject of another assay is BGC-823. Nature of the assay: Cancer cell growth inhibition (CellTiter-Glo), BGC-823. The assay is classed as cell-based, Human. Particulars: Homo sapiens; Gastric Cancer, BGC-823, 72 h treatment. How it is done: as §1, §2, §3, §4
A further assay deals with Colo205. Nature of the assay: Cancer cell growth inhibition (CellTiter-Glo), Colo205. Particulars: Homo sapiens, COLO 205; Colorectal Cancer, Colo205, 72 h treatment. The assay is classed as cell-based. How it is done:
as §1, §2, §3, §4

Another assay relates to Bx-PC-3. Nature of the assay: Cancer cell growth inhibition (CellTiter-Glo), Bx-PC-3. The assay is classed as cell-based, Human. Particulars: Homo sapiens, BXPC-3; Pancreatic Cancer, Bx-PC-3, 72 h treatment. How it is done: as §1, §2, §3, §4
Another assay has as its system DU145. Nature of the assay: Cancer cell growth inhibition (CellTiter-Glo), DU145. The assay is classed as cell-based, Human. Particulars: Homo sapiens, DU-145; Prostate Cancer, DU145, 72 h treatment. How it is done:
as §1, §2, §3, §4

The next assay deals with SK-HEP-1. Nature of the assay: Cancer cell growth inhibition (CellTiter-Glo), SK-HEP-1. Particulars: Homo sapiens, SK-HEP1; Liver Cancer, SK-HEP-1, 72 h treatment. The assay is classed as cell-based. How it is done:
as §1, §2, §3, §4

A further assay deals with LNCaP. Nature of the assay: Cancer cell growth inhibition (CellTiter-Glo), LNCaP. The assay is classed as cell-based, Human. Particulars: Homo sapiens, Prostate Cancer, 72 h treatment. How it is done:
as §1, §2, §3, §4

In a further assay the test system is MCF-7. Nature of the assay: Cancer cell growth inhibition (CellTiter-Glo), MCF-7. The assay is classed as cell-based, Human. Particulars: Homo sapiens, MCF7; Breast Cancer, MCF-7, 72 h treatment. How it is done: as §1, §2, §3, §4
A further assay deals with HCT-116. Nature of the assay: Cancer cell growth inhibition (CellTiter-Glo), HCT-116. Particulars: Homo sapiens; Colorectal Cancer, HCT-116, 72 h treatment. The assay is classed as cell-based. How it is done:
as §1, §2, §3, §4

The subject of another assay is PC-3. Nature of the assay: Cancer cell growth inhibition (CellTiter-Glo), PC-3. The assay is classed as cell-based, Human. Particulars: Homo sapiens; Prostate Cancer, PC-3, 72 h treatment. How it is done:
as §1, §2, §3, §4

A further assay concerns MCG803. Nature of the assay: Cancer cell growth inhibition (CellTiter-Glo), MCG803. Particulars: Homo sapiens; Gastric Cancer, MCG803, 72 h treatment. The assay is classed as cell-based, Human. How it is done:
as §1, §2, §3, §4

The next assay relates to NCI-H460. Nature of the assay: Cancer cell growth inhibition (CellTiter-Glo), NCI-H460. The assay is classed as cell-based, Human. The conditions noted are these: Homo sapiens; Lung Cancer, NCI-H460, 72 h treatment. How it is done:
as §1, §2, §3, §4

A further assay concerns U-87MG. Nature of the assay: Cancer cell growth inhibition (CellTiter-Glo), U-87MG. The assay is classed as cell-based, Human. Particulars: Homo sapiens, Glioblastoma, 72 h treatment. How it is done:
as §1, §2, §3, §4

Usually IC50 stands for the concentration that gives 50% inhibition. Low values mean greater potency in that assay, high ones weaker potency in that assay.

Consider `O=C(CCCCCNC(=O)c1[nH]c(-c2ccccc2)cc1-c1ccc(O)cc1)NO` [Example 1, N-(6-(hydroxyamino)-6-oxohexyl)-3-(4-hydroxyphenyl)-5-phenyl-1H-pyrrole-2-carboxamide], for which the IC50 in the assay with HT-29 amounted to 1.42 µM; in the assay with BGC-823, 2.16 µM; with Colo205, 1.87 µM; in the assay with Bx-PC-3, 2.68 µM; with DU145 it was 0.81 µM; with SK-HEP-1 it was 4.03 µM. In addition, the IC50 in the assay with LNCaP stood at 1.11 µM; in the assay on MCF-7, 1.75 µM; in the assay with HCT-116 it was 0.95 µM; in the assay on PC-3 it was 17.9 µM; with MCG803, 1.11 µM; with NCI-H460, 2.4 µM. 5.67 µM corresponded to half-maximal inhibition with U-87MG (IC50).
For the compound `O=C(CCCCCNC(=O)c1[nH]c(-c2ccc(O)cc2)cc1-c1ccccc1)NO` [Example 2, N-(6-(hydroxyamino)-6-oxohexyl)-5-(4-hydroxyphenyl)-3-phenyl-1H-pyrrole-2-carboxamide], the concentration for half-maximal inhibition (IC50) in the assay with HT-29 is 4.04 µM; in the assay with BGC-823 it was 11.7 µM; with Colo205, 1.82 µM; with Bx-PC-3, 4.27 µM; in the assay on DU145, 1.86 µM; with SK-HEP-1, 6.04 µM. Moreover, the IC50 with LNCaP amounted to 1.77 µM; in the assay on MCF-7 it was 10.9 µM; with HCT-116 it was 1.75 µM; in the assay on PC-3, 26.9 µM; in the assay with MCG803, 3.08 µM; with NCI-H460 it was 9.41 µM. The same compound displayed an IC50 in the assay on U-87MG of 11.8 µM.
In the case of `O=C(CCCCCNC(=O)c1[nH]c(-c2ccc(O)cc2)cc1-c1ccoc1)NO` [Example 5, 3-(3-furyl)-N-(5-(hydroxycarbamoyl)pentyl)-5-(4-hydroxy-phenyl)-1H-pyrrole-2-carboxamide], the IC50 in the assay with HT-29 worked out at 3.45 µM; in the assay on BGC-823, 23.1 µM; with Colo205 it was 0.59 µM; with Bx-PC-3, 2.42 µM; in the assay on DU145 it was 0.72 µM; with SK-HEP-1, 1.84 µM. For the same compound, the IC50 came out at 0.59 µM in the assay on LNCaP; 9.23 µM in the assay with MCF-7; 0.45 µM in the assay on HCT-116; 25.8 µM in the assay on PC-3; 2.61 µM in the assay on MCG803; 10.9 µM in the assay on NCI-H460. It took 8.72 µM to reach half-maximal inhibition with U-87MG (IC50).
With `O=C(CCCCCNC(=O)c1[nH]c(-c2ccc(O)cc2)cc1-c1ccsc1)NO` [Example 6, N-(5-(hydroxycarbamoyl)pentyl)-5-(4-hydroxyphenyl)-3-(3-thienyl)-1H-pyrrole-2-carboxamide], the IC50 in the assay with HT-29 was determined as 3.64 µM; with BGC-823, 13.8 µM; with Colo205, 0.87 µM; in the assay with Bx-PC-3 it was 2.91 µM; in the assay on DU145, 1.05 µM; in the assay with SK-HEP-1, 3.13 µM. In addition, the IC50 in the assay on LNCaP was 0.8 µM; in the assay on MCF-7 it was 7.07 µM; in the assay on HCT-116, 0.78 µM; in the assay with PC-3 it was 26.8 µM; with MCG803, 2.82 µM; in the assay with NCI-H460 it was 9.38 µM. In the assay with U-87MG, this compound came in with a 50% inhibitory concentration (IC50) of 8.98 µM.

Source of the values: US20150038545A1, “HYDROXYPHENYL PYRROLE COMPOUNDS CONTAINING AN HYDROXAMIC ACID AS HDAC INHIBITORS AND MEDICINAL APPLICATIONS THEREOF” (UNIVERSIDAD DEL PAÍS VASCO, priority 2011, published 2015).
